Test results: patent US6649797B2, “Compounds and methods of use to treat infectious diseases” (The Picower Institute for Medical Research, priority 1996, dated 2003)

Legend:
HIV-1ADA = HIV-1ADA replication in purified monocytes, RT activity in supernatant (FIG. 2); type: cell-based; details: Human immunodeficiency virus 1, Monocyte, monocytes without M-CSF
Description: FIGS. 2A-C. The effect of various concentrations of Compound No. 2 on RT activity in the supernatant of HIV-1-infected monocytes. FIG. 2A: Multiplicity of Infection (MOI) 1 ng p24/10^6 monocytes, culture d in presence of M-CSF. FIG. 2B: MOI 8 ng p24/10^6 monocytes, cultured in absence of M-CSF. FIG. 2C: MOI 0.8 ng p24/10^6 monocytes, cultured in absence of M-CSF.
The cultures were treated with none or between 10^−12 and 10^−6 M Compound No. 2 and, simultaneously with the beginning of treatment, the cells were exposed to the monocyte-tropic strain HIV-1ADA at about 0.01 TCID50/cell (1 ng p24/10^6 cells) for 2 hours. Samples were withdrawn at days 3, 6, 10, 14 and 17 after infection and assayed for reverse transcription activity.
FIGS. 2B and 2C show the effects of various concentrations of Compound No. 2 on the production of HIV-1 in monocyte cultures not supplemented with M-CSF. In these studies MOI, as determined by concentration of p24 antigen was; FIG. 2B (8 ng/10^6 cells) and FIG. 2C (0.8 ng/10^6 cells).
Primary human monocytes were obtained from peripheral blood by Ficoll-Hypaque centrifugation and adherence to plastic as described previously. Gartner S. P., et al., 1986, Science 233:215. […]
Virus stock and infection. […] The concentration of HIV-1 was determined by immunoassay of viral p24, concentration; using a conversion factor of 1 ng/200 HIV-1 particles. […]

HIV-1 = experiment: AZT and Compound No. 2 in combination, HIV-1 infected monocyte cultures, RT activity; type: cell-based; details: for reverse transcriptase activity in supernatant: 100 nM Compound No. 2, AZT 0
Description: Primary human monocytes were obtained from peripheral blood by Ficoll-Hypaque centrifugation and adherence to plastic as described previously. Gartner S. P., et al., 1986, Science 233:215. Briefly, after Ficoll-Hypaque (Pharmacia) separation, PBMCs were washed 4 times with DMEM (the last wash was done at 800 rpm to remove platelets) and resuspended in monocyte culture medium [DMEM supplemented with 1 mM glutamine, 10% heat-inactivated human serum, 1% penicillin+streptomycin mixture (Sigma)] at a density of 6×10^6 cells/ml. Cells were seeded in 24-well plates (1 ml per well) and incubated for 2 h at 37° C, 5% CO2. Following incubation, cells were washed 3 times with DMEM to remove non-adherent cells and incubation was continued in monocyte culture medium supplemented with 250 U/ml human M-CSF (Sigma). Cells were allowed to mature for 7 days prior to infection with the monocyte-tropic strain, HIV-1ADA. Nuovo, G. J., et al., 1992, Diagn. Mol. Pathol. 1:98. Two hours after infection, cells were washed with medium and cultured in RPMI supplemented with 10% human serum. In experiments where PCR analysis was performed, virus was pretreated with RNAse-free DNAse (Boehinger-Mannheim) for 2 h at room temperature and then filtered though a 0.2 μm pore nitrocellulose filter prior to infection.
For the reverse transcriptase (RT) assay, 10 μl of culture supernatant was added to 40 μl of reaction mixture (final composition was 50 mM Tris-HCl, pH 7.8; 20 MM KCl; 5 MM MgCl2; 1 mM DTT; 0.1% Triton X-100; 0.2 OD/ml polyA; 0.2 OD/ml oligo(dT)12-18; and 40 μCi/ml ^3H-dTTP (76 Ci/mmol, DuPont) and incubated 2 hr at 37° C. 5 μl of the reaction mixture was then spotted onto the DE 81 (Whatman) paper. Paper was air dried and washed 5 times with 5% Na2HPO4, followed by rinsing with distilled water. After air drying, paper was put on a Flexi Filter plate (Packard), covered with scintillation fluid and counted in a Top Count Microplate Counter (Packard). Results are expressed as counts per minute in 1 ml of supernatant (cpm/ml).
In view of these premises, the effects on HIV-1 replication in human monocyte cultures of the various concentrations of AZT, alone or in combination with 100 nM Compound No. 2, were tested using the protocols of Sections 6.2.1 and 6.2.2. Drugs were added to the monocyte cultures together with HIV-1 at about 10^5 TCID/ml. The concentration of drugs was maintained on refeeding. HIV-1 replication was assessed by assay of the supernatant for reverse transcriptase activity. The results are expressed as mean ± std. dev. (cpm×10^−3) in Table V.

[1] = test system: BSA with conjugated NLS peptides that mimic the NLS of SV40 large T antigen; experiment: Nuclear import of BSA with conjugated NLS peptides of SV40 large T antigen
[2] = molecular target: T1, karyopherin α / purified recombinant MA (Human immunodeficiency virus type 1 group M subtype B, UniProt P04591); experiment: Binding of karyopherin α to purified recombinant MA; type: biochemical, HIV-1
T1 construct: or to purified recombinant MA

[3] = molecular target: T2, MA associated with the HIV-1 pre-integration complex (Human immunodeficiency virus type 1 group M subtype B, UniProt P05890+P05959); experiment: Reaction of [14C]CNI-H0294 with MA in HIV-1 pre-integration complexes after borohydride reduction; type: binding; details: 10 μM [14C]-CNI-H0294, borohydride reduction, HIV-1-infected cell extracts
T2 construct: MA is made from the Gag precursor and RT is made from the Gag-Pol precursor; endogenous in cells; host or cells: cytoplasmic extract of H9 cells infected with HIV-1RF
Description: Cytoplasmic extracts from HIV-1RF-infected H9 cells were treated with [^14C]CNI-H0294 (10 μM). After borohydride reduction the extracts were immunoprecipitated with anti-MA (αMA), anti-IN (αIN), or pre-immune serum (PI). […] Immunoprecipitated radioactivity was quantified in a scintillation counter.
Cytoplasmic lysates prepared from HIV-1-infected cells were treated with 10 μM of [^14C]-labeled CNI-H0294 (specific activity 5×10^4 cpm/nmol) in 1 ml extraction buffer adjusted to 0.14 M NaCl. Sodium borohydride was then added to a final concentration 10 mM and samples were incubated 1 hr at room temperature prior to immunoprecipitation to reduce double bonds of Schiff bases to an irreversible secondary amine. Immunoprecipitation was performed as described above, but beads were stringently washed three times with PBS supplemented with 0.1% SDS, 1% sodium deoxycholate, 1 μg/ml each of aprotinin and leupeptin, and 1 mM PMSF.
To discriminate between these two possibilities, cytoplasmic extracts of HIV-1-infected cells were treated with [^14C]-CNI-H0294 and then with sodium borohydride, to reduce the reversible Schiff bases hypothesized to form between the compound and the lysines of MA NLS and convert the attached drug molecules to irreversible adducts. […] Without borohydride treatment, no radioactivity was immunoprecipitated with MA.

Compound | IC50 (HIV-1ADA; MOI 0.8 ng p24/10^6 cells (FIG. 2C)) | IC50 (HIV-1ADA; MOI 8 ng p24/10^6 cells (FIG. 2B)) | reverse transcriptase activity in supernatant (HIV-1; day-7) | reverse transcriptase activity in supernatant (HIV-1; day-11) | reduction in RT activity (HIV-1; day-11, 100 nM Compound No. 2 alone) | block of nuclear import of BSA with conjugated NLS peptides [1] | inhibition of binding of karyopherin α to purified recombinant MA [2] | radioactivity immunoprecipitated by anti-MA serum [3]
CC(=O)c1cc(Nc2cc(C)[n+](C)c(N)n2)cc(C(C)=O)c1.[I-] [Compound No. 2, 2-amino-4-(3,5-diacetylphenyl)amino-1,6-dimethylpyrimidinium iodide] | < 1 nM | ~10 nM | 0.37 ± 0.07 cpm×10^−3 | 0.72 ± 0.30 cpm×10^−3 | ~60% | – | – | –
CC(=O)c1cc(Nc2cc(C)[n+](C)c(N)n2)cc(C(C)=O)c1 [CNI-0294, 2-Amino-4-(3,5-diacetylphenyl)amino-1,6-dimethylpyrimidinium chloride] | – | – | – | – | – | did not block | did not inhibit | a significant amount of radioactivity was immunoprecipitated by anti-MA serum
